Tests used:
Mino cells = test: Inhibition of cell proliferation, Mino cells (Cell Viability Assay, 72 h); format: cell-based, human; settings: for IC50: Homo sapiens, MINO, 72 h; for Mino Max inhi. %: inhibition rate at the highest concentration of the compound
Description: (§1) SU-DHL-4, Mino, and SU-DHL-6 cells, in the culture medium of RPMI1640+10% FBS, were cultured in an incubator at 37° C. under 5% CO2. Cells were plated in a 96-well plate. Specifically, SU-DHL-4 cells were at 20000/well, Mino and SU-DHL-6 cells were at 5000/well, with 90 μL/well. 10 μL of the compounds at different concentrations were added to each well. There were 3 replicate wells for each concentration, and the last column, added with DMSO, was used as a vehicle control group. The cultures were continued for 72 hours at 37° C. under 5% CO2. After 72 hours, 100 μL of detection reagent (Cell Viability Assay, Promega, G7573) was added to each well, and the cultures were uniformly mixed for 2 minutes, and incubated at room temperature for 10 minutes. The […] signal value was measured with a microplate reader (PHERAstar FSX). The IC50 value of the compound on cell proliferation inhibition was calculated using origin9.2 software, and the inhibition rate at the highest concentration of the compound (Max inhi.%) was calculated according to formula (1).
(§2) Max inhi.%=(1−T72administration/T72vehicle)×100 Formula (1).

[1] = Pharmacokinetic experiment in rats; format: in vivo; settings: male, SD, rat, po, plasma, i.g. (20 mg/kg); for AUC(0-t): single dose
Description: Experimental objective: In this experiment, a single dose of each test compound was administered to SD rats intravenously and intragastrically, the concentrations of the test compound in plasma of rats were measured, and the pharmacokinetic characteristics and bioavailability of the test compound in rats were evaluated.
Experimental animals: Male SD rats, about 200 g, 6-8 weeks old, 6 rats/compound. Rats were purchased from Hunan SJA Laboratory Animal Co., Ltd, with the laboratory animal production license number of SCXK (Xiang) 2019-004.
Experimental method: On the day of the experiment, 6 SD rats were randomly grouped according to their body weight. The animals were fasted with water available for 12 to 14 hours one day before the administration of a test compound, and were fed 4 hours after the administration.
Before and after the administration, […] of blood was taken from the orbit of the rats under isoflurane anesthesia, and placed in an EDTAK2 centrifuge tube. Centrifugation was carried out at 5000 rpm at 4° C. for 10 min, and the plasma was collected.
Time points for sample collection in G1&G2 groups comprise
Before analysis and detection, all samples were stored at −80° C. The samples were detected by HPLC-MS/MS.

SU-DHL-6 cells = test: Inhibition of cell proliferation, SU-DHL-6 cells (Cell Viability Assay, 72 h); format: cell-based, human; settings: Homo sapiens, SU-DHL-6, 72 h
Description: as §1, §2

Row | Compound | IC50 (Mino cells) [nM] | Mino Max inhi. % (Mino cells) [%] | also measured
1 | Nc1ncnc2c1c(-c1ccc(Oc3ccccc3)cc1)nn2C1CC2(CCN(C3CN(C4CN(c5ccc6c(c5)C(=O)N(C5CCC(=O)NC5=O)C6=O)C4)C3)CC2)C1 (stereo not drawn) [Compound 65, 5-(3-(2-(4-amino-3-(4-phenoxyphenyl)-1H-pyrazolo[3,4-d]pyrimidin-1-yl)-7-azaspiro[3.5]nonan-7-yl)-[1,3′-biazetidin]-1′-yl)-2-(2,6-dioxopiperidin-3-yl) isoindoline-1,3-dione] | 14 |  | 
2 | Nc1ncnc2c1c(-c1ccc(Oc3ccccc3)cc1)nn2C1CC2(CCN(C3CC4(CCN(c5ccc6c(c5)C(=O)N(C5CCC(=O)NC5=O)C6=O)CC4)C3)CC2)C1 (stereo not drawn) [Compound 66, 5-(2′-(4-amino-3-(4-phenoxyphenyl)-1H-pyrazolo[3,4-d]pyrimidin-1-yl)-7,7′-diaza[2,7′-bispiro[3.5]nonan]-7-yl)-2-(2,6-dioxopiperidin-3-yl)isoindoline-1,3-dione] | 27 |  | 
3 | Nc1ncnc2c1c(-c1ccc(Oc3ccccc3)cc1)nn2C1CCN(C2(C(F)(F)F)CCN(C3CN(c4ccc5c(c4)C(=O)N(C4CCC(=O)NC4=O)C5=O)C3)CC2)CC1 (stereo not drawn) [Compound 70, 5-(3-(4-(4-amino-3-(4-phenoxyphenyl)-1H-pyrazolo[3,4-d]pyrimidin-1-yl)-4′-(trifluoromethyl)-[1,4′-bipiperidin]-1′-yl)azetidin-1-yl)-2-(2,6-dioxopiperidin-3-yl)isoindoline-1,3-dione] | 101 |  | 
4 | Nc1ncnc2c1c(-c1ccc(Oc3ccccc3)cc1)nn2C1CCN(C2CN(C3CN(C(=O)CC45CC6CC(CC(C6)C4)C5)C3)C2)CC1 [Compound 72, 2-(1-adamantyl)-1-[3-[3-[4-[4-amino-3-(4-phenoxyphenyl)pyrazolo[3,4-d]pyrimidin-1-yl]-1-piperidyl]azetidin-1-yl]azetidin-1-yl]ethanone] | 10 to 1000 | 88.5 | 
5 | Nc1ncnc2c1c(-c1ccc(Oc3ccccc3)cc1)nn2C1CCN(C2CCN(C3CN(C(=O)CC45CC6CC(CC(C6)C4)C5)C3)CC2)CC1 [Compound 73, 2-(1-adamantyl)-1-(3-(4-(4-amino-3-(4-phenoxyphenyl)pyrazolo[3,4-d]pyrimidin-1-yl)-[1,4′-bipiperidin]-1′-yl)azetidin-1-yl)ethan-1-one] |  | 99.8 | 
6 | Nc1ncnc2c1c(-c1ccc(Oc3ccccc3)cc1)nn2C1CCN(C2CN(C(=O)CC34CC5CC(CC(C5)C3)C4)C2)CC1 [Compound 74, 2-((3r,5r,7r)-adamantan-1-yl)-1-(3-(4-(4-amino-3-(4-phenoxyphenyl)-1H-pyrazolo[3,4-d]pyrimidin-1-yl)piperidin-1-yl)azetidin-1-yl)ethanone] |  | 88.3 | 
7 | Nc1ncnc2c1c(-c1ccc(Oc3ccccc3)cc1)nn2C1CCC2(CC1)CN(C1CN(c3ccc4c(c3)C(=O)N(C3CCC(=O)NC3=O)C4=O)C1)C2 (stereo not drawn) [Compound 75, 5-(3-(7-(4-amino-3-(4-phenoxyphenyl)-1H-pyrazolo[3,4-d]pyrimidin-1-yl)-2-azaspiro[3.5]nonan-2-yl)azetidin-1-yl)-2-(2,6-dioxopiperidin-3-yl)isoindoline-1,3-dione] | 37 |  | 
8 | Nc1ncnc2c1c(-c1ccc(Oc3ccccc3)cc1)nn2C1CCN(C2CN(C3CN(c4ccc5c(n4)CN(C4CCC(=O)NC4=O)C5=O)C3)C2)CC1 (stereo not drawn) [Compound 76, 3-(2-(3-(4-(4-amino-3-(4-phenoxyphenyl)-1H-pyrazolo[3,4-d]pyrimidin-1-yl)piperidin-1-yl)-[1,3′-biazetidin]-1′-yl)-5-oxo-5,7-dihydro-6H-pyrrolo[3,4-b]pyridin-6-yl)piperidine-2,6-dione] | 141 |  | 
9 | NC(=O)c1c(-c2ccc(Oc3ccccc3)cc2)nn2c1NCC[C@H]2C1CCN(C2CN(CC3CN(c4ccc5c(c4)C(=O)N(C4CCC(=O)NC4=O)C5=O)C3)C2)CC1 (stereo partly drawn) [Compound 80, (7S)-7-(1-(1-((1-(2-(2,6-dioxopiperidin-3-yl)-1,3-dioxoisoindolin-5-yl)azetidin-3-yl)methyl)azetidin-3-yl)piperidin-4-yl)-2-(4-phenoxyphenyl)-4,5,6,7-tetrahydropyrazolo[1,5-a]pyrimidine-3-carboxamide] |  | 99.1 | 
10 | NC(=O)c1c(-c2ccc(Oc3ccccc3)cc2)nn2c1NCC[C@H]2C1CCN(C2CCN(CC3CCN(c4ccc5c(c4)C(=O)N(C4CCC(=O)NC4=O)C5=O)CC3)CC2)CC1 (stereo partly drawn) [Compound 81, (7S)-7-(1′-((1-(2-(2,6-dioxopiperidin-3-yl)-1,3-dioxoisoindolin-5-yl)piperidin-4-yl)methyl)-[1,4′-bipiperidin]-4-yl)-2-(4-phenoxyphenyl)-4,5,6,7-tetrahydropyrazolo[1,5-a]pyrimidine-3-carboxamide] |  | 99.9 | 
11 | NC(=O)c1c(-c2ccc(Oc3ccccc3)cc2)nn2c1NCC[C@H]2C1CCN(C2CCN(CC3CN(c4ccc5c(c4)C(=O)N(C4CCC(=O)NC4=O)C5=O)C3)CC2)CC1 (stereo partly drawn) [Compound 82, (7S)-7-(1′-((1-(2-(2,6-dioxopiperidin-3-yl)-1,3-dioxoisoindolin-5-yl)azetidin-3-yl)methyl)-[1,4′-bipiperidin]-4-yl)-2-(4-phenoxyphenyl)-4,5,6,7-tetrahydropyrazolo [1,5-a]pyrimidine-3-carboxamide] |  | 99.9 | 
12 | NC(=O)c1c(-c2ccc(Oc3ccccc3)cc2)nn2c1NCC[C@H]2C1CCN(CC2CCN(c3ccc4c(c3)C(=O)N(C3CCC(=O)NC3=O)C4=O)CC2)CC1 (stereo partly drawn) [Compound 83, (7S)-7-(1-((1-(2-(2,6-dioxopiperidin-3-yl)-1,3-dioxoisoindolin-5-yl)piperidin-4-yl)methyl)piperidin-4-yl)-2-(4-phenoxyphenyl)-4,5,6,7-tetrahydropyrazolo[1,5-a]pyrimidine-3-carboxamide] |  | 99.7 | 
13 | Nc1ncnc2c1c(-c1ccc(Oc3ccccc3)cc1)nn2C1CCN(C2CCN(CC3CN(c4ccc5c(c4)C(=O)N(C4CCC(=O)NC4=O)C5=O)C3)CC2)CC1 (stereo not drawn) [Compound 84, 5-(3-((4-(4-amino-3-(4-phenoxyphenyl)-1H-pyrazolo[3,4-d]pyrimidin-1-yl)-[1,4′-bipiperidin]-1′-yl)methyl)azetidin-1-yl)-2-(2,6-dioxopiperidin-3-yl)isoindoline-1,3-dione] | 32 |  | AUC(0-t) [1]: 176 ± 57 ng·h/mL
14 | Nc1ncnc2c1c(-c1ccc(Oc3ccccc3)cc1)nn2C1CCN(C2CCN(CC3CCN(c4ccc5c(c4)C(=O)N(C4CCC(=O)NC4=O)C5=O)CC3)CC2)CC1 (stereo not drawn) [Compound 86, 5-(4-((4-(4-amino-3-(4-phenoxyphenyl)-1H-pyrazolo[3,4-d]pyrimidin-1-yl)-[1,4′-bipiperidin]-1′-yl)methyl)piperidin-1-yl)-2-(2,6-dioxopiperidin-3-yl)isoindoline-1,3-dione] | 42 |  | AUC(0-t) [1]: 247 ± 73 ng·h/mL
15 | Nc1ncnc2c1c(-c1ccc(Oc3ccccc3)c(F)c1)nn2C1CCN(C2CN(C3CN(c4ccc5c(c4)C(=O)N(C4CCC(=O)NC4=O)C5=O)C3)C2)CC1 (stereo not drawn) [Compound 95, 5-(3-(4-(4-amino-3-(3-fluoro-4-phenoxyphenyl)-1H-pyrazolo[3,4-d]pyrimidin-1-yl)piperidin-1-yl)-[1,3′-biazetidin]-1′-yl)-2-(2,6-dioxopiperidin-3-yl)isoindoline-1,3-dione] | 100 |  | bioavailability ([1]; bioavailability): 12.3 ± 2.1%; AUC(0-t) [1]: 4270 ± 739 ng·h/mL
16 | Nc1ncnc2c1c(-c1ccc(Oc3ccccc3)c(F)c1)nn2C1CCN(C2CCN(C3CN(c4ccc5c(c4)C(=O)N(C4CCC(=O)NC4=O)C5=O)C3)CC2)CC1 (stereo not drawn) [Compound 96, 5-(3-(4-(4-amino-3-(3-fluoro-4-phenoxyphenyl)-1H-pyrazolo[3,4-d]pyrimidin-1-yl)-[1,4′-bipiperidin]-1′-yl)azetidin-1-yl)-2-(2,6-dioxopiperidin-3-yl)isoindoline-1,3-dione] | 501 |  | 
17 | Nc1ncnc2c1c(-c1ccc(Oc3ccccc3)cc1)nn2C1CCN(C2CN(CC3CN(c4cccc5c4C(=O)N(C4CCC(=O)NC4=O)C5=O)C3)C2)CC1 (stereo not drawn) [Compound 105, 4-(3-((3-(4-(4-amino-3-(4-phenoxyphenyl)-1H-pyrazolo[3,4-d]pyrimidin-1-yl)piperidin-1-yl)azetidin-1-yl)methyl)azetidin-1-yl)-2-(2,6-dioxopiperidin-3-yl)isoindoline-1,3-dione] | 208 |  | IC50 (SU-DHL-6 cells): 331 nM
18 | Nc1ncnc2c1c(-c1ccc(Oc3ccccc3)cc1)nn2C1CCN(C2CN(CC3CN(c4ccc5c(c4)CN(C4CCC(=O)NC4=O)C5=O)C3)C2)CC1 (stereo not drawn) [Compound 107, 3-(5-(3-((3-(4-(4-amino-3-(4-phenoxyphenyl)-1H-pyrazolo[3,4-d]pyrimidin-1-yl)piperidin-1-yl)azetidin-1-yl)methyl)azetidin-1-yl)-1-oxoisoindolin-2-yl)piperidine-2,6-dione] |  |  | AUC(0-t) [1]: 610 ± 131 ng·h/mL

Source: patent US20230248833A1, “COMPOUND HAVING BTK KINASE DEGRADING ACTIVITY, AND PREPARATION METHOD AND PHARMACEUTICAL USE THEREFOR” (SICHUAN HAISCO PHARMACEUTICAL CO., LTD., priority 2020, published 2023)
